Test results as given in patent publication US20250177412A1, “SMALL-MOLECULE INHIBITORS TARGETING THE BOB1/OCT1 INTERFACE” (NANTES UNIVERSITE, priority 2022, published 2025).
Like-named read-outs stand apart in the source and are kept apart here.

Assays:
[1] = system: CD4+CD25- effector T cells; assay: T cell suppression assay (B cell / CD4+CD25- T cell co-culture); format: cell-based, human; conditions: for inhibition at 10 µM: Homo sapiens, T-cell, read-out: T-cell proliferation (percentage inhibition)
Protocol: B cells were kept unstimulated (B resting) or stimulated (B expanded) for 24 hours with the expansion mixture containing F(ab′)2 anti-BCR, CpG ODN, CD40L, IL-2, and IL-21. FIG. 6A-B show the expression level of granzyme B measured as frequency (FIG. 6A) and by the MFI (FIG. 6B) in DMSO-treated (compound 005-) and 10 μM compound 005-treated resting (open circles) and expanded for […] (closed circles) B cells. FIG. 6C-G show resting and expanded B cells washed with fresh medium and co-cultured with autologous CPD-labelled CD4^+CD25^− effector T cells for 3 days in the presence of anti-CD3/CD28 Dynabeads. compound 005 was added to the B cells only during 24-hours of activation with the expansion mixture (FIG. 6C-D), followed by daily supplementation during three days of co-culture (FIG. 6E-G). Representative offset histogram overlays showing median fluorescence intensity of staining of gated live […] with cell proliferation dye (CPD) (FIGS. 6C, 6E and 6F). The percentage of proliferating cells is indicated for one representative donor. FIGS. 6D and 6G show corresponding summarized data for the percentage inhibition of proliferation of anti-CD3/CD28-activated CD4^+CD25^− T cells co-cultured with resting (open circles) or expanded (closed circles) B cells without BOB1 inhibitor (DMSO-treated control) or in the presence of 10 μM compound 005. Bars indicate the mean±SD. ** P<0.01, *** P<0.001. FIG. 6H-J Expression values of POU2AF1 (FIG. 6H), POU2F1 (FIG. 6I), and POU2F2 (FIG. 6J) genes encoding BOB1, OCT1 and OCT2, respectively, extracted from scRNA-seq data on B cells stimulated toward regulatory (expanded) or unstimulated (rested). Data are represented with bar plots as mean+SD of non-zero values or with dot plots represented as a percentage of positive cells (FIG. 6H-J) or the average expression in each condition (FIG. 6K). P-values are adjusted to the number of expressed genes in the dataset.
(§1) Cells were resuspended in PBS and labelled with Cell Proliferation Dye eFluor 450 (CPD) (eBioscience) at a final concentration of 10 μM at 37° C. for 10 min, kept on ice for 5 min, and washed twice with 10 mL of ice-cold RPMI 1640 10% FCS medium.
Primary total human B cells (1×10^6 cells/mL) were prestimulated for ˜24 h with the cocktail containing 10 ng/mL of IL-21 (Miltenyi Biotec), 5 μg/mL of F(ab′)2 anti-BCR Abs (Jackson ImmunoResearch Laboratories Inc.), 50 ng/ml of CD40L (R&D systems), 1 μg/mL of CpG oligonucleotides (ODN 2006, Invivogen), and 50 U/mL of IL-2 (Novartis) as previously described, in the presence of vehicle (DMSO) or 10 μM compound 005. […] The capacity of B cells to suppress effector T cell proliferation was assessed as previously described. […] T cell proliferation was evaluated as the percentage of CPD-low T cells on day 3. […]

CD4+CD25- T cells = assay: Anti-CD3/CD28-induced T-cell proliferation (CPD); format: cell-based; conditions: Homo sapiens, 72 h, 3 days
Protocol: FIGS. 7A-P are a combination of graphs and FACS plots showing that targeting the BOB1-OCT(s) interaction by compound 005 inhibits dose-dependently T-cell proliferation and selectively suppresses memory Th17 responses. Representative offset histogram overlays showing median fluorescence intensity of cell proliferation dye (CPD) in anti-CD3/CD28-activated CD4^+CD25^− T cells cultured without BOB1 inhibitor (DMSO-treated control) or in the presence of 5, 10 or 15 μM compound 005, as indicated (FIG. 7A). The percentage of proliferating cells is indicated for one representative donor. […] FIG. 7C-O show the expression of Th1-(IFNG (FIG. 7C), TNF (FIG. 7D), IL-2 (FIG. 7E) and TBX21 (FIG. 7F)), Th2-(IL-4 (FIG. 7G) and GATA3 (FIG. 7H)), Th17-(IL-17A (FIG. 7I), IL-17F (FIG. 7J), IL-21 (FIG. 7K), IL-22 (FIG. 7L) and RORC (FIG. 7M)), and Treg-(IL-10 (FIG. 7N) and FOXP3 (FIG. 7O)) associated cytokines and transcription factors during recall (memory) T cell responses in vitro. […] Each dot represents a biological replicate. Bars indicate the mean±SD. * P<0.05, ** P<0.01, **** P<0.0001.
as §1
To confirm and extend the observation that targeting the BOB1-OCT(s) interaction suppresses effector T cell proliferation efficiently, we cultured CD4^+CD25^− T cells in the presence of anti-CD3/CD28 microbeads and different concentrations of compound 005 for 3 days. […] OCT1 is constitutively expressed in T cells, whereas BOB1 is induced only after activation. […] Therefore, we next determined the consequences of inhibition of the OCT1-BOB1 complex on the expression of Th1-, Th2-, and Th17-associated cytokines during primary and secondary (memory) T-cell responses in vitro (FIGS. 7C-O). […]

Compound: Cc1ccc(NC(=O)C2CN(c3nc(NCCCc4ccc(F)cc4)nc(NCCC(=O)O)n3)c3ccccc3O2)cc1Cl (stereo not shown) [compound 005, 3-((4-(2-((3-chloro-4-methylphenyl)carbamoyl)-2,3-dihydro-4H-benzo[b][1,4]oxazin-4-yl)-6-((3-(4-fluorophenyl)propyl)amino)-1,3,5-triazin-2-yl)amino)propanoic acid]
- suppressive capacity of B expanded ([1]; 10 μM during the 24-hours pre-stimulation phase only): did not affect
- suppression of effector T-cell proliferation ([1]; 10 μM, co-cultures of T cells and B expanded): 79.7±4.9
- inhibition at 10 µM ([1]; 72 h, 10 μM, T cells only, 3 days): 53.7 ± 5.8%
- inhibition at 10 µM ([1]; 10 μM, co-cultures of T cells and B resting): 52.1 ± 7.1%
- inhibition at 5 µM (CD4+CD25- T cells; 5 μM): 18.8 ± 12.5%
- inhibition at 10 µM (CD4+CD25- T cells; 10 μM): 50.5 ± 10.2%
- inhibition at 15 µM (CD4+CD25- T cells; 15 μM): 77.5 ± 9.2%
